Patent US20190211099A1, “METHODS AND COMPOSITIONS FOR TREATING CANCER WITH SIGLEC-9 ACTIVITY MODULATORS” (KING'S COLLEGE LONDON, priority 2016, published 2019)

Tests used:
THP-1 cells = experiment: PAI-1, M-CSF and kynurenine in supernatants of differentiated THP-1 cells; type: cell-based, human; conditions: 100 μg/mL MUC1-ST
Procedure: THP-1 cells were cultured at a concentration of 1×10^6/mL in AIM V medium. Cells were differentiated using […] phorbol 12-myristate 13-acetate (PMA) on day 0 and 100 ng/mL LPS on day 3 in the presence or absence of 100 μg/mL MUC1-ST or MUC1-T. Cell supernatants were harvested on day 5 and PAI-I concentration measured by ELISA.
(§1) Given that IDO catalyzes the rate-limiting step in the metabolism of tryptophan, the tryptophan metabolite kynurenine was detected as follows. 604, supernatant was mixed with 304, 30% trichloroacetic acid (TCA) and incubated for 30 minutes at 50° C. The supernatant was spun at 3000×g and 50 μL was harvested and mixed with 50 μL freshly prepared Ehrlich Reagent (2% p-dimethylaminobenzaldehyde in glacial acetic acid). After 10 minutes optical density (O.D.) was measured at 492 nm, and concentrations were calculated against a kynurenine standard curve. An increase in the tryptophan metabolite kynurenine was observed (FIG. 11D).
The intracellular effects of MUC1-ST binding to Siglec-9 were further explored in the monocytic cell line, THP-1. THP-1 cells were cultured for three days at a concentration of 1×10^6/mL in AIM V medium and differentiated using […] phorbol 12-myristate 13-acetate (PMA) in the presence or absence of 100 μg/mL MUC1-ST. […] THP-1 cells were further treated with DMSO or the MEK/ERK inhibitor PD98059 at 1004, and the concentration of PAI-1, M-CSF and kynurenine in cell supernatants were measured as described above. […] This increase in concentration was blocked by the MEK/ERK inhibitor PD98059 (FIG. 4I).

Siglec-9 = Siglec-9 (Homo sapiens, UniProt Q9Y336); experiment: Binding of biotinylated MUC1-ST to primary monocytes and monocyte-derived macrophages (flow cytometry), with or without blocking antibody; type: cell-based; design: endogenous in cells; host or cells: THP-1 and U937 cells; conditions: primary monocytes, monocyte-derived macrophages and AML lines
Siglec-9, sequence (Q9Y336 18-463): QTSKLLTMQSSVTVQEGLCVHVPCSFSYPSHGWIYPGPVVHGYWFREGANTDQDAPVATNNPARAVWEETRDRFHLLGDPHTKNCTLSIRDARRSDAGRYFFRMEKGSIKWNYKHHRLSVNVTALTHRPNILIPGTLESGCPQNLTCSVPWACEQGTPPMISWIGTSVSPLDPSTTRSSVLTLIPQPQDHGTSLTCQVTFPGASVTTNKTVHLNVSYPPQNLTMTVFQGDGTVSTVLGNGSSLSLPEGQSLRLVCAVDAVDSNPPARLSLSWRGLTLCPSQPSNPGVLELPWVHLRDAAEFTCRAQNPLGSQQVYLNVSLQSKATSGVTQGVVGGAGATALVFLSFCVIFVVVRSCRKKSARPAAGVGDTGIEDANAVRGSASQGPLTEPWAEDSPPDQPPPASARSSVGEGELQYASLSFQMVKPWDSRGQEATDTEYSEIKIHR
Procedure: Both the cell phenotype staining and neutralization studies described in the Examples were performed using the following antibodies (all anti-human): Siglec-9 (Biotechne; 191240), Siglec-9 FITC (Biotechne; 191240), Siglec-3 (Biotechne; 6C5/2), Siglec-7 (Biotechne; AF1138), Siglec-3 FITC (BD; P67.6), Siglec-7 PE (Biolegend; 6-434), Siglec-10 PE (Biolegend; 5G6), Siglec-1 (abcam; 7D2), HLA-DR FITC (Beckman Coulter; IM0463U), CD16 FITC (Biolegend; B73.1), CD14 FITC (BD 555397), CD69 PE (Beckman Coulter; IM1943), CD25 FITC (ABX228FITC), CD86 PE (Beckman Coulter; IM2729U), CD40 FITC (BD 555588), CD83 PE (Beckman Coulter; IM2218), CD163 PE (Biolegend; GHI/61), CXCR1 FITC (BD Pharmongen; 551126), CD45 PC5 (Beckman Coulter; IM2653U), CD206 PE (ebioscience; 19.2), PD-L1 PE (Biolegend; 29E.2A3), CD36 (Santa Cruz; H-300), TGFbetaRII (Bio-Techne; AF-241), IL-6Rα (Tocilizumab; Roche. A generous gift from Dr. Valerie Corrigall). Cells were suspended in PBS+0.5% BSA (2×10^5 cells/100 μL/sample) and incubated with Abs according to the manufacturer's instructions. At least 1×10^4 events were evaluated using either Epics XL, (Beckman Coulter) or FACSCalibur (BD Biosciences) flow cytometers. […]
To investigate the interaction of MUC1-ST with cells of the immune system, immune cell subsets were obtained as follows. […] Purity was assessed at >95% by staining with relevant antibodies. […]

[1] = test system: indoleamine 2,3-dioxygenase (IDO); experiment: IDO mRNA in monocyte-derived macrophages (qRT-PCR); type: cell-based, human; conditions: macrophages differentiated with GM-CSF or M-CSF
SHP2 = experiment: Activation of SHP2 after MUC1-ST binding; type: cell-based, human
Procedure: ELISAs for IL-6, IL-12p70, TGF-β1, PAI-1, M-CSF, EGF, SHP2, phospho-SHP2 (Biotechne) were all carried out as per manufacturer's instructions.
A Western blot to assay phosphorylation of SHP, which is recruited by phosphorylated Siglec-9 (Avril et al. (2004) supra) was conducted. Monocytes were incubated with MUC1-ST and lysed as described above, and the resulting lysates were separated by SDS PAGE (10% gel) before being transferred, blocked and probed with anti-SHP1 (Santa Cruz), anti-phospho SHP1 (Abcam) and appropriate secondary antibodies. Phosphorylation of SHP was not observed after MUC1-ST binding to Siglec-9 on primary monocytes (FIG. 13C) although again, phosphorylation of SHP1 was observed when Siglec-9 was activated via antibody cross-linking. No activation of SHP2 was observed.

macrophages = experiment: Kynurenine in supernatant of MUC1-ST treated macrophages (Ehrlich Reagent); type: cell-based, human
Procedure: as §1

binding to cells (Siglec-9): found to bind
increase in expression of mRNA encoding IDO [1]: 10-25 fold
activation of SHP2 (SHP2): No activation
Substance: NeuAcα2,3Galβ1-3GalNAc linked via a Ser/Thr of MUC1 [MUC1-ST]
PAI-1 concentration in cell supernatants (THP-1 cells; THP-1, PMA, three days): increased
kynurenine concentration in cell supernatants (THP-1 cells; THP-1, PMA, three days): increased
PAI-I secretion (THP-1 cells; THP-1 differentiated with PMA and LPS, day 5): increased
tryptophan metabolite kynurenine in supernatant (macrophages): increase
